From patent US20210393614A1, “QUINONE REDUCTASE 2 INHIBITORS FOR USE AS NEUROPROTECTIVE AGENTS” (DUKE UNIVERSITY, priority 2018, published 2021)

Columns and labels:
[1] = during therapeutic dosing; cited from earlier work
[2] = system: permanent MCA occlusion model; settings: cited from earlier work
[3] = system: CPB/DHCA perioperative cerebral injury; test: Rat model of cardiopulmonary bypass (CPB)/deep hypothermic circulatory arrest (DHCA); type: in vivo, Sprague-Dawley rats; settings: for apoptotic and necrotic neurons in cortex and hippocampus: 25 mg/kg, 48 hours after DHCA, FIG. 6, FIG. 7; for decrease in post-operative blood brain barrier permeability (gadolinium chelate, MRI): compared to respective control groups, p<0.05, preliminary results
Description: Perioperative cerebral injury (PCI) following major cardiovascular surgery using cardiopulmonary bypass (CPB) and deep hypothermic circulatory arrest (DHCA) remains a significant cause of adverse cerebral outcome. […] Cannulas were placed in the tail artery and the right external jugular vein. Animals were then cooled on CPB for 30 minutes, and DHCA was instituted at a pericranial temperature of 16-18° C. […] MRI was performed on day-1 post-operatively, neurological assessments on day 1 and 2 post-operatively, and animals then sacrificed after day 2.

[4] = system: vascular dementia (BCAS mice); test: Murine model of vascular dementia (BCAS); type: in vivo; settings: for Morris water maze escape latency: versus vehicle, n=10
Description: Vascular dementia is caused by chronic cerebral hypoperfusion and is characterized clinically by white matter lesions on MRI and a decline in executive function. […] Physiological, cellular, and functional outcomes were determined using a combination of quantitative immunochemistry, MRI, and behavioral tasks including Morris water maze and rotorod.

[5] = system: transient middle cerebral artery (MCA) occlusion; test: Mouse model of transient middle cerebral artery (MCA) occlusion; type: in vivo
[6] = molecular target: T1, QR2 (Homo sapiens, UniProt P16083); test: Inhibition of QR2 (IC50, Table 1); type: biochemical; settings: for IC50: inhibitors of QR2, mean +/− SD; for LiPE (pIC50-clogP): lipophilic efficiency, QR2 pIC50 minus clog P
T1 sequence (P16083 1-231): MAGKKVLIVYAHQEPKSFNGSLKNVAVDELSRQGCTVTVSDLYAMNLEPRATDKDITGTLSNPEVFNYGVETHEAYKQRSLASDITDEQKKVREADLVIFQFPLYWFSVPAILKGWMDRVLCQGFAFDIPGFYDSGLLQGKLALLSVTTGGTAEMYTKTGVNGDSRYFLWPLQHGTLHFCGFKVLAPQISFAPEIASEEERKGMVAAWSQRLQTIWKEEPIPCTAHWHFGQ

[7] = in vivo
[8] = system: TBI model of diffuse closed head injury; test: Murine TBI model of diffuse closed head injury; type: in vivo; settings: single 25 mg/kg administration, n=12/gp
Description: The neuroprotective potential of QR2 inhibition was investigated in a murine TBI model of diffuse closed head injury (Laskowitz et al., “Neuroprotective pentapeptide CN-105 is associated with reduced sterile inflammation and improved functional outcomes in a traumatic brain injury murine model.” Sci. Rep. 2017 Apr. 21; 7:46461).

[9] = system: intracranial hemorrhagic injury; test: Mouse model of intracranial hemorrhagic injury; type: in vivo; settings: single 25 mg/kg i.p. dose

Structure (SMILES)	apoptotic and necrotic neurons in cortex and hippocampus [3]	decrease in post-operative blood brain barrier permeability (gadolinium chelate, MRI) [3] [%]	Morris water maze escape latency [4]	IC50 [6] [µM]	LiPE (pIC50-clogP) [6]	also measured
CCN(CC)CCCC(C)Nc1ccnc2cc(Cl)ccc12 (stereo not shown) [chloroquine]	fewer apoptotic and necrotic neurons	3	performance profile similar to their N-MCQ counterparts			plasma concentration [1]: < 1 µM; reduction of stroke volumes [2]: 60%; stroke evolution between 4 and 24 hours by DW-MRI ([5]; single i.p. 25 mg/kg 90 minutes after ischemia onset): reduction in stroke evolution; reduction in overall stroke volume ([5]; single i.p. 25 mg/kg 90 minutes after ischemia onset, post-mortem histology at 72 hours): 55%
Oc1ccc(CCNc2ccnc3cc(Cl)ccc23)cc1 [Example Compound A, 4-{2-[(7-chloroquinolin-4-yl)amino]ethyl}phenol]				2.7	1.65	
COc1cc(NC(C)c2ccco2)c2ncccc2c1 (stereo not shown) [Example Compound C, N-[1-(furan-2-yl)ethyl]-6-methoxyquinolin-8-amine]				0.85	3.42	
CNc1ccnc2cc(Cl)ccc12 [7C-4MAQ, 7-chloro-N-methylquinolin-4-amine]	fewer apoptotic and necrotic neurons	3	decreased escape latencies compared to vehicle controls		4.67	neurological scores at post-op day 1 and 2 ([3]; 25 mg/kg 2 hours before CPB/DHCA, FIG. 8): significantly improved neurological scores; LD50 relative to the 25 mg/kg dose [7]: more than 20 times; Morris water maze probe trial, time in target quadrant ([4]; p<0.05 group effect): significantly more time in the target quadrant; improvement in Morris water maze performance ([8]; 1 month following injury): 62%; improvement over vehicle in rotorod latency [8]: 20%; improvement in motor function (rotorod assessment) [9]: 21%; reductions in cortical stroke volumes relative to those after CQ ([5]; equivalent single acute phase dose 25 mg/kg, FIG. 3C): ~2 ×
Clc1ccc2c(Nc3ccccn3)ccnc2c1 [Example Compound D, 7-chloro-N-(pyridin-2-yl)quinolin-4-amine]				0.55	2.71	
COc1cc(NCc2ccccn2)c2ncccc2c1 [Example Compound B, 6-methoxy-N-(pyridin-2-ylmethyl)quinolin-8-amine]					4.30	
